Assay results reported in patent US10433548B2, “Biocidal compositions comprising iron chelators” (Arch Chemicals, Inc., priority 2012, dated 2019).
In brackets after ≈: the same amount, converted by molar mass. Where two headings read alike, the source gives them in different places.

Tests used:
Experiment in all cases: Minimum Inhibitory Concentration (MIC) test, 96-well microtiter plate
Format in all cases: cell-based
R. subcapitata = test system: R. subcapitata; design: unit not given here
B. subtilis = test system: B. subtilis; design: unit not given here
Description: (§1) Activities of antimicrobial compositions of the present invention were tested against a range of typical skin microorganisms in a Minimum Inhibitory Concentration (MIC) test. MICs for the organisms were determined in a standard 96-well microtiter plate assay in Brain Heart Infusion Broth (BHI) for P. acnes; Tryptic Soy Broth (TSB) for the remaining bacteria; Ushijima Broth for M. furfur; Sabouraud Dextrose Broth (SDB) for other fungi. Samples were tested in duplicate on separate plates. For bacteria and fungi plates, samples were serially diluted into double strength media on the microtiter plates. The bacterial or fungal inocula, suspended in sterile deionized water, were then added to the wells in 1:1 ratio to the medium. The final concentration of bacteria in the wells was 5×10^5 CFUs/mL, the final concentration of fungi was 5×10^4 cells or spores/mL. Plates were incubated: anaerobically at 35° C. for 7 days for P. acnes; aerobically at 35° C. for 2 days for the remaining bacteria and aerobically at 35° C. for 7 days for M. furfur; aerobically at 28° C. for 7 days for T. mentagrophytes.

A. brasiliensis = test system: A. brasiliensis; design: unit not given here
Description: as §1

P. faveolarum = test system: P. faveolarum; design: unit not given here
Description: as §1

A. pullulans = test system: A. pullulans; design: unit not given here
Description: as §1

P. aeruginosa = test system: P. aeruginosa; design: unit not given here
Description: as §1

C. pyrenoidosa = test system: C. pyrenoidosa; design: unit not given here
P. acnes = settings: for MIC: Cutibacterium acnes
Description: as §1

S. aureus = test system: S. aureus; design: unit not given here
Description: as §1

C. albicans = test system: C. albicans; design: unit not given here
Description: as §1

E. hirae = test system: E. hirae; design: unit not given here
Description: as §1

M. furfur = test system: M. furfur; design: unit not given here; settings: concentration of ZPT; ZPT alone or with potentiator, Molar Eq (Pot:ZPT) 10:1, 8-HQ-Zn 1:1
Description: as §1

T. mentagrophytes = test system: T. mentagrophytes; design: unit not given here; settings: concentration of ZPT; ZPT alone or with potentiator, Molar Eq (Pot:ZPT) 10:1, 8-HQ-Zn 1:1
Description: as §1

S. epidermidis = test system: S. epidermidis; design: unit not given here; settings: concentration of ZPT; ZPT alone or with potentiator, Molar Eq (Pot:ZPT) 10:1, 8-HQ-Zn 1:1
Description: as §1

[1] = concentration of BBIT, BBIT alone or with potentiator, Molar Eq (Pot:BBIT) 10:1
[2] = concentration of BIT, BIT alone or with potentiator, Molar Eq (Pot:BIT) 10:1
[3] = concentration of Propiconazole, alone or with potentiator, Molar Eq (Pot:PROP) 10:1
[4] = concentration of IPBC, IPBC alone or with potentiator, Molar Eq (Pot:IPBC) 10:1
[5] = concentration of ZPT, ZPT alone or with potentiator, Molar Eq (Pot:ZPT) 10:1, 8-HQ-Zn 1:1

Compound | MIC R. subcapitata (R. subcapitata; [1]) | MIC B. subtilis (B. subtilis; [1]) | MIC A. brasiliensis (A. brasiliensis; [1]) | MIC P. faveolarum (P. faveolarum; [1]) | MIC A. pullulans (A. pullulans; [1]) | MIC P. aeruginosa (P. aeruginosa; [1]) | MIC C. pyrenoidsa (C. pyrenoidosa; [1]) | MIC R. subcapitata (R. subcapitata; [2]) | MIC B. subtilis (B. subtilis; [2]) | MIC A. brasiliensis (A. brasiliensis; [2]) | MIC P. faveolarum (P. faveolarum; [2]) | MIC A. pullulans (A. pullulans; [2]) | MIC P. aeruginosa (P. aeruginosa; [2]) | MIC C. pyrenoidsa (C. pyrenoidosa; [2]) | MIC R. subcapitata (R. subcapitata; [3]) | MIC S. aureus (S. aureus; [3]) | MIC C. albicans (C. albicans; [3]) | MIC P. faveolarum (P. faveolarum; [3]) | MIC E. hirae (E. hirae; [3]) | MIC P. aeruginosa (P. aeruginosa; [3]) | other results
CCCCn1sc2ccccc2c1=O [BBIT, butylbenzisothiazolinone] | 1.25-15 | 1.88-2.5 | 1.25-5 | 1.25-5 | 2.5-5 | 80.00 | 1.25-2.5 |  |  |  |  |  |  |  |  |  |  |  |  |  | 
O=c1[nH]sc2ccccc12 [BIT, benzisothiazolinone] |  |  |  |  |  |  |  | 8.13 | 1.02-4 | 16-32.5 | 4.06-16 | 4.06-8 | 32.50 | 4.06-8 |  |  |  |  |  |  | 
O=C(OOC(=O)c1ccccc1)c1ccccc1 [Benzoyl Peroxide, benzoyl peroxide] |  |  |  |  |  |  |  |  |  |  |  |  |  |  |  |  |  |  |  |  | MIC (P. acnes; Benzoyl Peroxide without chelator or with chelator, Molar Eq. HBED 10×, 8-HQ 5×, DTPA 10×, Desferrioxamine 1×, read-out: MIC values against P. acnes, Benzoyl Peroxide): 200 µg/mL (≈ 826 µM)
O=C(O)CN(CCN(CC(=O)O)CC(=O)O)CCN(CC(=O)O)CC(=O)O [DTPA, diethylenetriaminepentaacetic acid] | 0.94 | 2.50 | 1.25 | 0.16 | 0.63 | 20.00 | 1.25 | 0.51 | 2.03 | 16.25 | <0.06 | 2.03 | 8.13 | 0.51 |  |  |  |  |  |  | MIC values against P. acnes, Benzoyl Peroxide (P. acnes; Benzoyl Peroxide without chelator or with chelator, Molar Eq. HBED 10×, 8-HQ 5×, DTPA 10×, Desferrioxamine 1×): 6.25 ppm; MIC values against P. acnes, Salicylic Acid (P. acnes; Salicylic Acid without chelator or with chelator, Molar Eq. HBED 10×, 8-HQ 5×, DTPA 10×, Desferrioxamine 1×): 3.13 ppm
CC(=O)N(O)CCCCCNC(=O)CCC(=O)N(O)CCCCCNC(=O)CCC(=O)N(O)CCCCCN [Desferrioxamine, desferrioxamine] |  |  |  |  |  |  |  |  |  |  |  |  |  |  |  |  |  |  |  |  | MIC (P. acnes; read-out: MIC values against P. acnes, Benzoyl Peroxide): 25 µg/mL (≈ 44.6 µM); MIC (P. acnes; read-out: MIC values against P. acnes, Salicylic Acid): 25 µg/mL (≈ 44.6 µM)
CCCC1COC(Cn2cncn2)(c2ccc(Cl)cc2Cl)O1 (stereo not shown) [Propiconazole, propiconazole] |  |  |  |  |  |  |  |  |  |  |  |  |  |  | 20.63-41.25 | 82.5-165.00 | 41.25-100.00 | 20.63-41.25 | 165.00 | 165.00 | MIC C. pyrenoidsa (C. pyrenoidosa; [3]): 20.63-82.5
O=C(O)c1ccccc1O [Salicylic Acid, salicylic acid] |  |  |  |  |  |  |  |  |  |  |  |  |  |  |  |  |  |  |  |  | MIC (P. acnes; Salicylic Acid without chelator or with chelator, Molar Eq. HBED 10×, 8-HQ 5×, DTPA 10×, Desferrioxamine 1×, read-out: MIC values against P. acnes, Salicylic Acid): 100 µg/mL (≈ 724 µM)
O=C(CC(=O)C(F)(F)F)c1cccs1.[Zn] [Then-Zn, thenoyl trifluoro acetone zinc salt] |  |  |  |  |  |  |  | 1.02 | 1.52 | 32.50 | 0.13 | 4.06 | 32.50 | 2.03 |  |  |  |  |  |  | MIC R. subcapitata (R. subcapitata; [4]): 1.02; MIC S. aureus (S. aureus; [4]): 13.25; MIC C. albicans (C. albicans; [4]): 2.03; MIC B. subtilis (B. subtilis; [4]): 4.06; MIC P. faveolarum (P. faveolarum; [4]): 0.51; MIC E. hirae (E. hirae; [4]): 8.13; MIC P. aeruginosa (P. aeruginosa; [4]): 65.0; MIC C. pyrenoidsa (C. pyrenoidosa; [4]): 0.38
O=c1cccccc1[O-].O=c1cccccc1[O-].[Zn+2] [Tropolone-Zn, zinc(tropolone)2] | 0.94 | 0.31 | 0.94 | 0.23 | 0.31 | 20.00 | 1.25 | 1.02 | 0.13 | 1.02 | 0.19 | 0.24 | 8.13 | 0.76 | 1.29 | 0.64 | 0.97 | 0.32 | 0.32 | 41.25 | MIC R. subcapitata (R. subcapitata; [4]): 0.51; MIC R. subcapitata (R. subcapitata; [5]): 0.49; MIC S. aureus (S. aureus; [4]): 0.51; MIC C. albicans (C. albicans; [4]): 1.02; MIC C. albicans (C. albicans; [5]): 0.73; MIC B. subtilis (B. subtilis; [4]): 0.51; MIC B. subtilis (B. subtilis; [3]): 0.64; MIC B. subtilis (B. subtilis; [5]): 0.24; MIC A. brasiliensis (A. brasiliensis; [5]): 1.95; MIC P. faveolarum (P. faveolarum; [4]): 0.38; MIC P. faveolarum (P. faveolarum; [5]): 0.05; MIC M. furfur (M. furfur): 0.73; MIC E. hirae (E. hirae; [4]): 0.25; MIC T. mentagrophytes (T. mentagrophytes): 0.18; MIC P. aeruginosa (P. aeruginosa; [4]): 32.5; MIC P. aeruginosa (P. aeruginosa; [5]): 15.63; MIC S. epidermidis (S. epidermidis): 0.18; MIC C. pyrenoidsa (C. pyrenoidosa; [4]): 0.51; MIC C. pyrenoidsa (C. pyrenoidosa; [3]): 2.58; MIC C. pyrenoidsa (C. pyrenoidosa; [5]): 0.98
glucoheptanoic acid zinc salt [Gluco-heptanoate-Zn] | 1.88 | 1.25 | 2.50 | 0.16 | 5.00 | 80.00 | 1.25 |  |  |  |  |  |  |  | 0.97 | 41.25 | 82.50 | 1.93 | 20.63 | 165.00 | MIC B. subtilis (B. subtilis; [3]): 20.63; MIC C. pyrenoidsa (C. pyrenoidosa; [3]): 15.47
zinc dihydroxyacetate [DHA-Zn] |  |  |  |  |  |  |  | 2.03 | 1.52 | 6.09 | 0.25 | 2.03 | 32.50 | 2.03 | 1.29 | 41.25 | 0.64 | 1.93 | 20.63 | 165.00 | MIC R. subcapitata (R. subcapitata; [5]): 0.98; MIC C. albicans (C. albicans; [5]): 3.91; MIC B. subtilis (B. subtilis; [3]): 30.94; MIC B. subtilis (B. subtilis; [5]): 0.98; MIC A. brasiliensis (A. brasiliensis; [5]): 7.81; MIC P. faveolarum (P. faveolarum; [5]): 0.05; MIC M. furfur (M. furfur): 1.95; MIC T. mentagrophytes (T. mentagrophytes): 0.49; MIC P. aeruginosa (P. aeruginosa; [5]): 31.25; MIC S. epidermidis (S. epidermidis): 3.91; MIC C. pyrenoidsa (C. pyrenoidosa; [3]): 10.31; MIC C. pyrenoidsa (C. pyrenoidosa; [5]): 0.98
